The results in this text go back to patent publication US20230416258A1, “BENZ[…], AND PREPARATION METHOD THEREFOR AND USE THEREOF” (CHINA PHARMACEUTICAL UNIVERSITY, priority 2020, published 2023).

In the first experiment the test system is KM mice. Put plainly: Test for drug-induced disappearance of righting reflex in mice. Format: in vivo. Conditions: 30 mg/kg, single rapid bolus via tail vein. The method, boiled down:
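Latency to, and duration of, righting reflex loss were recorded after one fast tail-vein bolus. Animals: randomized female KM mice weighing 18–25 g.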
In turn, `COC(=O)CC[C@@H]1N=C(c2ccccc2Cl)c2cc(Br)ccc2-n2c(SCN3CCOCC3)nnc21` [Compound 100, methyl (S)-3-(8-bromo-6-(2-chlorophenyl)-1-((morpholinomethyl)thio)-4H-benzo[f][1,2,4]triazolo[4,3-a][1,4]diazepin-4-yl)propionate] had a Duration of 9.75 min and a Latency of 0.64 min.
Taken in the same sequence, the figures for `C#CCSc1nnc2n1-c1ccc([N+](=O)[O-])cc1C(c1ccccc1F)=N[C@H]2CCC(=O)OC` [Compound 50, methyl (S)-3-(8-nitro-6-(2-fluorophenyl)-1-(prop-2-yn-1-ylthio)-4H-benzo[f][1,2,4]triazolo[4,3-a][1,4]diazepin-4-yl)propionate] were 15.27 min and 0.93 min.
In turn, `COC(=O)CC[C@@H]1N=C(c2ccccc2)c2cc([N+](=O)[O-])ccc2-n2c(SCCCN(C)C)nnc21` [Compound 110, methyl (S)-3-(8-nitro-1-((3-(dimethylamino)propyl)thio)-6-phenyl-4H-benzo[f][1,2,4]triazolo[4,3-a][1,4]diazepin-4-yl)propionate] registered a Duration of 10.16 min and a Latency of 0.22 min.
Taken in the same sequence, the figures for `COC(=O)CC[C@@H]1N=C(c2ccccc2Cl)c2cc(Cl)ccc2-n2c(SCCN(C)C)nnc21` [Compound 133, methyl (S)-3-(8-chloro-6-(2-chlorophenyl)-1-(2-((dimethylamino)ethyl)thio)-4H-benzo[f][1,2,4]triazolo[4,3-a][1,4]diazepin-4-yl)propionate] were 2.24 min and 0.26 min.
In turn, `COC(=O)CC[C@@H]1N=C(c2ccccc2)c2cc(Br)ccc2-n2c(SCCN3CCOCC3)nnc21` [Compound 106, methyl (S)-3-(8-bromo-1-((2-morpholinoethyl)thio)-6-phenyl-4H-benzo[f][1,2,4]triazolo[4,3-a][1,4]diazepin-4-yl)propionate] displayed a Duration of 12.37 min and a Latency of 0.33 min.
In the case of `CCN(CC)CCCSc1nnc2n1-c1ccc(Cl)cc1C(c1ccccc1Cl)=N[C@H]2CCC(=O)OC` [Compound 132, methyl (S)-3-(8-chloro-6-(2-chlorophenyl)-1-(3-((diethylamino)propyl)thio)-4H-benzo[f][1,2,4]triazolo[4,3-a][1,4]diazepin-4-yl)propionate], the Duration was found to be 18.05 min and the Latency was 0.87 min.
Molecule `COC(=O)CC[C@@H]1N=C(c2ccccc2F)c2cc(Cl)ccc2-n2c(SCC3CC3)nnc21` [Compound 45, methyl (S)-3-(8-chloro-1-((cyclopropylmethyl)thio)-6-(2-fluorophenyl)-4H-benzo[f][1,2,4]triazolo[4,3-a][1,4]diazepin-4-yl)propionate] gave a Duration of 11.37 min and a Latency of 0.65 min.
For `COC(=O)CC[C@@H]1N=C(c2ccccc2F)c2cc(Br)ccc2-n2c(SC(=O)N3CCN(C)CC3)nnc21` [Compound 131], the Duration was 6.84 min and the Latency came to 0.56 min.
Turning to `COC(=O)CC[C@@H]1N=C(c2ccccc2F)c2cc(Br)ccc2-n2c(SC)nnc21` [Compound 9, methyl (S)-3-(8-bromo-6-(2-fluorophenyl)-1-(methylthio)-4H-benzo[f][1,2,4]triazolo[4,3-a][1,4]diazepin-4-yl)propionate], the Duration is 12.12 min and the Latency is on record as 0.84 min.
Take `COC(=O)CC[C@@H]1N=C(c2ccccc2Cl)c2cc(Cl)ccc2-n2c(SCCC(=O)N(C)C)nnc21` [Compound 143, methyl (S)-3-(8-chloro-6-(2-chlorophenyl)-1-(3-((dimethylamino)-3-oxopropyl)thio)-4H-benzo[f][1,2,4]triazolo[4,3-a][1,4]diazepin-4-yl)propionate]: the Duration was determined as 9.62 min and the Latency is 0.64 min.
With `COC(=O)CC[C@@H]1N=C(c2ccccc2F)c2cc(Br)ccc2-n2c(SCN3CCOCC3)nnc21` [Compound 70, methyl (S)-3-(8-bromo-6-(2-fluorophenyl)-1-((morpholinomethyl)thio)-4H-benzo[f][1,2,4]triazolo[4,3-a][1,4]diazepin-4-yl)propionate], the Duration was found to be 18.61 min and the Latency worked out at 1.01 min.
Molecule `CCN(CC)CCSc1nnc2n1-c1ccc(Cl)cc1C(c1ccccc1F)=N[C@H]2CCC(=O)OC` [Compound 54, methyl (S)-3-(8-chloro-1-((2-(diethylamino)ethyl)thio)-6-(2-fluorophenyl)-4H-benzo[f][1,2,4]triazolo[4,3-a][1,4]diazepin-4-yl)propionate] yielded a Duration of 6.83 min and a Latency of 0.24 min.
`COC(=O)CC[C@@H]1N=C(c2ccccc2F)c2cc(Br)ccc2-n2c(SCCO)nnc21` [Compound 18, methyl (S)-3-(8-bromo-6-(2-fluorophenyl)-1-((2-hydroxyethyl)thio)-4H-benzo[f][1,2,4]triazolo[4,3-a][1,4]diazepin-4-yl)propionate]: the Duration is 4.74 min and the Latency was determined as 0.31 min.
In the case of `COC(=O)CC[C@@H]1N=C(c2ccc(F)cc2)c2ccccc2-n2c1n[nH]c2=S` [Tautomer of compound 6, methyl (S)-3-(6-(4-fluorophenyl)-1-thio-2,4-dihydro-1H-benzo[f][1,2,4]triazolo[4,3-a][1,4]diazepin-4-yl)propionate], the Duration is 8.84 min and the Latency is listed as 0.73 min.
Regarding `COC(=O)CC[C@@H]1N=C(c2ccccc2Cl)c2cc(Cl)ccc2-n2c(SCCn3cccc3)nnc21` [Compound 140, methyl (S)-3-(8-chloro-6-(2-chlorophenyl)-1-(2-((1H-pyrrol-1-yl)ethyl)thio)-4H-benzo[f][1,2,4]triazolo[4,3-a][1,4]diazepin-4-yl)propionate], the Duration was 21.65 min and the Latency is listed as 0.45 min.
Taken in the same sequence, the figures for `COC(=O)CC[C@@H]1N=C(c2ccccc2Cl)c2cc([N+](=O)[O-])ccc2-n2c(SC(C)=O)nnc21` [Compound 40, methyl (S)-3-(8-nitro-6-(2-chlorophenyl)-1-(acetylthio)-4H-benzo[f][1,2,4]triazolo[4,3-a][1,4]diazepin-4-yl)propionate] were 8.94 min and 0.37 min.
`COC(=O)CC[C@@H]1N=C(c2ccccn2)c2cc(Br)ccc2-n2c1n[nH]c2=S` [Tautomer of compound 3, methyl (S)-3-(8-bromo-6-(pyridin-2-yl)-1-thio-2,4-dihydro-1H-benzo[f][1,2,4]triazolo[4,3-a][1,4]diazepin-4-yl)propionate] displayed a Duration of 8.27 min and a Latency of 0.65 min.
Taken in the same sequence, the figures for `COC(=O)CC[C@@H]1N=C(c2ccccc2Cl)c2cc(Cl)ccc2-n2c(SC3CCN(C)CC3)nnc21` [Compound 93, methyl (S)-3-(8-chloro-6-(2-chlorophenyl)-1-((1-methylpiperidin-4-yl)thio)-4H-benzo[f][1,2,4]triazolo[4,3-a][1,4]diazepin-4-yl)propionate] were 12.41 min and 0.58 min.
With `CCCSc1nnc2n1-c1ccc(Br)cc1C(c1ccccc1F)=N[C@H]2CCC(=O)OC` [Compound 15, methyl (S)-3-(8-bromo-6-(2-fluorophenyl)-1-(propylthio)-4H-benzo[f][1,2,4]triazolo[4,3-a][1,4]diazepin-4-yl)propionate], the Duration came out at 8.47 min and the Latency came out at 1.03 min.

The experiment is the same for the next values; noted with them: 60 mg/kg, single rapid bolus via tail vein.
In turn, `COC(=O)CC[C@@H]1N=C(c2ccccc2)c2cc([N+](=O)[O-])ccc2-n2c(SCCCN(C)C)nnc21` [Compound 110, methyl (S)-3-(8-nitro-1-((3-(dimethylamino)propyl)thio)-6-phenyl-4H-benzo[f][1,2,4]triazolo[4,3-a][1,4]diazepin-4-yl)propionate] came in with a Duration of 15.27 min and a Latency of 0.21 min.
For `COC(=O)CC[C@@H]1N=C(c2ccccc2)c2cc(Br)ccc2-n2c(SCCN3CCOCC3)nnc21` [Compound 106, methyl (S)-3-(8-bromo-1-((2-morpholinoethyl)thio)-6-phenyl-4H-benzo[f][1,2,4]triazolo[4,3-a][1,4]diazepin-4-yl)propionate], the Duration is listed as 3.26 min and the Latency was found to be 0.09 min.
Molecule `COC(=O)CC[C@@H]1N=C(c2ccccc2F)c2cc([N+](=O)[O-])ccc2-n2c(SCCN3CCN(C)CC3)nnc21` [Compound 62, methyl (S)-3-(8-nitro-6-(2-fluorophenyl)-1-((2-(4-methylpiperazin-1-yl)ethyl)thio)-4H-benzo[f][1,2,4]triazolo[4,3-a][1,4]diazepin-4-yl)propionate] returned a Duration of 10.05 min and a Latency of 0.86 min.
`COC(=O)CC[C@@H]1N=C(c2ccccc2F)c2cc(Br)ccc2-n2c(SCCO)nnc21` [Compound 18, methyl (S)-3-(8-bromo-6-(2-fluorophenyl)-1-((2-hydroxyethyl)thio)-4H-benzo[f][1,2,4]triazolo[4,3-a][1,4]diazepin-4-yl)propionate] registered a Duration of 9.16 min and a Latency of 0.33 min.
Taken in the same sequence, the figures for `COC(=O)CC[C@@H]1N=C(c2ccccc2F)c2cc([N+](=O)[O-])ccc2-n2c(SCN3CCOCC3)nnc21` [Compound 71, methyl (S)-3-(8-nitro-6-(2-fluorophenyl)-1-((morpholinomethyl)thio)-4H-benzo[f][1,2,4]triazolo[4,3-a][1,4]diazepin-4-yl)propionate] were 12.10 min and 0.56 min.
Consider `COC(=O)CC[C@@H]1N=C(c2ccccc2Cl)c2cc(Br)ccc2-n2c(SC3CCN(C)CC3)nnc21` [Compound 94, methyl (S)-3-(8-bromo-6-(2-chlorophenyl)-1-((1-methylpiperidin-4-yl)thio)-4H-benzo[f][1,2,4]triazolo[4,3-a][1,4]diazepin-4-yl)propionate], for which the Duration is reported as 13.85 min and the Latency is given as 0.61 min.
As to `COC(=O)CC[C@@H]1N=C(c2ccccc2)c2cc(Br)ccc2-n2c(SCCCN(C)C)nnc21` [Compound 109, methyl (S)-3-(8-bromo-1-((3-(dimethylamino)propyl)thio)-6-phenyl-4H-benzo[f][1,2,4]triazolo[4,3-a][1,4]diazepin-4-yl)propionate], the Duration is reported as 13.27 min and the Latency is on record as 0.97 min.
In the case of `COC(=O)CC[C@@H]1N=C(c2ccccc2Cl)c2cc(Cl)ccc2-n2c(SCCCN(C)C)nnc21` [Compound 87, methyl (S)-3-(8-chloro-6-(2-chlorophenyl)-1-((3-(dimethylamino)propyl)thio)-4H-benzo[f][1,2,4]triazolo[4,3-a][1,4]diazepin-4-yl)propionate], the Duration was determined as 21.17 min and the Latency was determined as 0.73 min.
